According to US6482654B1, “Method of detecting shikimic acid” (Syngenta Limited, priority 2000, dated 2002):

Test system: plants
Assay: Shikimic acid/shikimate accumulation in glyphosate-treated plants, periodate/sulfite chromophore assay
Type: in vivo
Details: plants treated with a lethal amount of glyphosate; 5-10 μL of extract of about 150 mg leaf tissue in 8-fold (w/v) 0.25N hydrochloric acid; 1 ml final solution; control about 0.1 AU
Procedure: In the performance of the methods of the invention, for detection of the chromophore, it is preferable to have an absorbance of at least 0.05 absorbance units (AU) for the untreated control plant test sample and an absorbance of less than 2.0 AU for the test sample with the greatest amount of shikimic acid/shikimate in order to obtain optimal results from spectrophotometric measurement of the chromophore. […] After reaction with the periodate reagent and quenching by 0.5 ml of a mixture comprising sulfite and sodium hydroxide, there was 1 ml of solution with an absorbance of about 1.8 AU, while an untreated control plant gave an absorbance of about 0.1 AU.

O=C(O)CNCP(=O)(O)O [glyphosate, N-(phosphonomethyl) glycine]
absorbance of the chromophore (shikimic acid/shikimate accumulated): about 1.8 AU
